Measured values as given in PubChem BioAssay (NCI).
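Dose response: 5 concentrations. Exposure: 48 h. Format: 96-well plates. Endpoint: linear interpolation; highest concentration if not reached. The concentration for 50% growth inhibition is given as GI50. TGI denotes the concentration required for complete inhibition of growth.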

Columns and labels:
Experiment in all cases: DTP human tumour cell line panel, 48 h; in the data active means GI50 below about 0.43 µM; inactive means the rest
[1] = system: 786-0 renal
[2] = system: SK-MEL-28 melanoma
[3] = system: SF-539 CNS
[4] = system: SR leukemia
[5] = system: OVCAR-8 ovarian
[6] = system: NCI-H226 lung
[7] = system: UO-31 renal
[8] = system: HCT-15 colon
[9] = system: HCT-116 colon
[10] = system: NCI-H522 lung

Cc1cccc(C)c1NC(=O)/C(=N/NC(N)=S)C(C)C(=O)c1ccc(Cl)cc1 (centres undefined)
> 100 µM: TGI [1] | TGI [2] | TGI [3] | TGI [4] | TGI [5] | TGI [6] | TGI [7] | TGI [8] | TGI [9] | TGI [10]

OCC12C3C4C5C3C1C5C42 (centres undefined)
> 100 µM: TGI [1] | TGI [2] | TGI [3] | TGI [4] | TGI [5] | TGI [6] | TGI [7] | TGI [8] | TGI [9] | TGI [10]

CC(C)NCCCn1c(Sc2cc3c(cc2I)OCO3)nc2c(N)ncnc21
> 68.4 µM: TGI [3]
79.4 µM: TGI [6]
7.13 µM: TGI [7]
inactive: GI50 [1] 0.515 µM | GI50 [3] 0.858 µM | GI50 [6] 0.767 µM | GI50 [8] 0.441 µM
44.5 µM: TGI [2]
> 100 µM: TGI [1] | TGI [4] | TGI [5] | TGI [8] | TGI [9] | TGI [10]
active: GI50 [2] 0.418 µM | GI50 [4] 0.0602 µM | GI50 [5] 0.156 µM | GI50 [7] 0.323 µM | GI50 [9] 0.0628 µM | GI50 [10] 0.0588 µM

CC/C=C\C/C=C\C/C=C\CCCCCCCC(=O)OCC(O)CO (centres undefined)
> 68.3 µM: TGI [9]
24.6 µM: TGI [7]
> 77.1 µM: TGI [10]
> 100 µM: TGI [1] | TGI [2] | TGI [3] | TGI [4] | TGI [5] | TGI [6]
> 88 µM: TGI [8]

CCOC(=O)C1=C(C)N(c2ccc(Cl)cc2)[C@]2(C#N)C(O)=C(Cl)C(Cl)=C(O)[C@]12C#N
96.8 µM: TGI [3]
> 100 µM: TGI [1] | TGI [2] | TGI [4] | TGI [5] | TGI [6] | TGI [7] | TGI [8] | TGI [9] | TGI [10]
inactive: GI50 [1] > 100 µM | GI50 [2] > 100 µM | GI50 [3] 8.61 µM | GI50 [4] 20.6 µM | GI50 [5] > 100 µM | GI50 [6] > 100 µM | GI50 [7] 53.8 µM | GI50 [8] 45.8 µM | GI50 [9] 90 µM | GI50 [10] 56.5 µM

COc1cc2c(cc1OCCCn1c(-c3ccccn3)nc3ccccc31)N=C[C@@H]1CCCN1C2=O
2.59 µM: TGI [7]
10.9 µM: TGI [1]
6.81 µM: TGI [10]
6.9 µM: TGI [6]
9.92 µM: TGI [8]
4.98 µM: TGI [3]
inactive: GI50 [1] 2.76 µM | GI50 [2] 5.01 µM | GI50 [3] 2.27 µM | GI50 [4] 2.82 µM | GI50 [5] 0.957 µM | GI50 [6] 0.8 µM | GI50 [7] 0.474 µM | GI50 [8] 2.5 µM | GI50 [9] 1.35 µM | GI50 [10] 1.76 µM
> 20.1 µM: TGI [4]
11.6 µM: TGI [2]
7.56 µM: TGI [9]

O=C(Nc1ccc(OCc2nnc(-c3ccc(Cl)cc3)o2)c(F)c1)Nc1ccc(Cl)c(C(F)(F)F)c1
7.04 µM: TGI [10]
4.1 µM: TGI [7]
4.34 µM: TGI [3]
5.1 µM: TGI [1]
inactive: GI50 [1] 2.05 µM | GI50 [2] 3.02 µM | GI50 [3] 1.91 µM | GI50 [4] 1.85 µM | GI50 [5] 2.97 µM | GI50 [6] 2.84 µM | GI50 [7] 1.52 µM | GI50 [8] 2.03 µM | GI50 [9] 1.8 µM | GI50 [10] 2.27 µM
13.2 µM: TGI [6]
4.9 µM: TGI [4]
6.16 µM: TGI [9]
10.9 µM: TGI [8]
12.1 µM: TGI [5]
13.5 µM: TGI [2]

O=C1NC(=O)C(N2C(=O)c3ccccc3C2=O)CC1O (centres undefined)
inactive: GI50 [1] > 100 µM | GI50 [2] > 100 µM | GI50 [3] > 100 µM | GI50 [4] > 100 µM | GI50 [5] > 100 µM | GI50 [6] > 100 µM | GI50 [7] > 100 µM | GI50 [8] > 100 µM | GI50 [9] > 100 µM | GI50 [10] > 100 µM
> 100 µM: TGI [1] | TGI [2] | TGI [3] | TGI [4] | TGI [5] | TGI [6] | TGI [7] | TGI [8] | TGI [9] | TGI [10]
